How the values were obtained:
[1] = test system: pCH058.c/2960; experiment: MAGI assay, T/F HIV-1 clone pCH058.c/2960; assay type: cell-based; details: Human immunodeficiency virus 1, MAGI
Source text: (§1) We also examined the activity of GRL-compounds against Transmitter/founder (T/F) HIV-1 viruses. T/F viruses are involved in the initial infection. It is considered that T/F viruses virtually always use CCR5 rather than CXCR4 and infect T cells but not macrophages because […] of CD4 is needed to mediate virus entry for the initial transmission[20]–[24]. […] We obtained four HIV-1 T/F infectious clones. We determined the antiviral activity of GRL-117C, GRL-10007C and GRL-10018C on these HIV-1 clones using MAGI assay.
MAGI-CCR5 cells[18] were maintained in DMEM supplemented with 10% fetal calf serum (FCS: Gemini Bio-Products, West Sacramento, CA), 200 μg/ml G418, 100 μg/ml hygromycin B, and 100 μg/ml zeomycin. The Chinese hamster ovary (CHO) cells expressing CCR5[19] were maintained in Ham’s F-12 medium (GIBCO-BRL, Rockville, MD) supplemented with 10% FCS, 50 U/ml penicillin, and 50 μg/ml streptomycin in the presence of 5 μg/ml blasticidin S hydrochloride. TZM-bl cells were obtained from the NIH AIDS Reagent Program, and were cultured in DMEM with 10% FCS. Peripheral blood mononuclear cells (PBMCs) were isolated from buffy coats of HIV-1 seronegative individuals, and were activated with 10 μg/ml phytohemagglutinin (PHA) prior to use[16]. A laboratory wild-type R5-HIV-1 strain (HIV-1Ba-L)[37] was employed for drug susceptibility assays. AD101 (experimental CCR5 inhibitor) and VVC-resistant HIV clones[7],[8] were provided by Dr. John P. Moore of Cornell University for this study. The clones were propagated with activated PBMCs, and were used for the assays. […] The following reagents (plasmids) for T/F HIV-1 viruses[22],[24] were obtained through the NIH AIDS Reagent Program, Division of AIDS, NIAID, NIH: pCH040.c/2625 (cat# 11740), pCH106.c/2633 (cat# 11743), pTHRO.c/2626 (cat# 11745), and pCH058.c/2960 (cat# 11856), from Dr. John Kappes and Dr. Christina Ochsenbauer.
(§2) Antiviral assays using PHA-PBMCs (p24 assay) were conducted as previously reported[16],[38]. In brief, PHA-PBMCs (1 × 10^6/ml) were exposed to 50 TCID50 of HIV-1Ba-L or drug-resistant HIV-1 infectious clones in the presence or absence of various concentrations of drugs; 10-fold serial dilutions were performed in 96-well microculture plates. The amount of p24 antigens produced by the cells was determined on day 7 in the culture via a commercially available ELISA kit (PerkinElmer). The p24 production level in drug-free control cell cultures was used as the reference. […] Antiviral assays using MAGI-CCR5 cells (MAGI assay) were conducted as previously reported[16],[39]. Single-round virus infection assays using TZM-bl cells infected with R5-HIV-1s (HIV-1YU2, HIV-1KP-5pc, and HIV-1KP-5mvcR)[10] were also conducted as previously described.

[2] = test system: Transmitter/founder (T/F) HIV-1 viruses; experiment: MAGI assay, all four T/F viruses (range); assay type: cell-based; details: Human immunodeficiency virus 1, MAGI, read-out: IC50 values (range over four T/F viruses)
Source text: as §1
MAGI-CCR5 cells[18] were maintained in DMEM supplemented with 10% fetal calf serum (FCS: Gemini Bio-Products, West Sacramento, CA), 200 μg/ml G418, 100 μg/ml hygromycin B, and 100 μg/ml zeomycin. The Chinese hamster ovary (CHO) cells expressing CCR5[19] were maintained in Ham’s F-12 medium (GIBCO-BRL, Rockville, MD) supplemented with 10% FCS, 50 U/ml penicillin, and 50 μg/ml streptomycin in the presence of 5 μg/ml blasticidin S hydrochloride. TZM-bl cells were obtained from the NIH AIDS Reagent Program, and were cultured in DMEM with 10% FCS. […]
Antiviral assays using PHA-PBMCs (p24 assay) were conducted as previously reported[16],[38]. […] The amount of p24 antigens produced by the cells was determined on day 7 in the culture via a commercially available ELISA kit (PerkinElmer). […]

[3] = target: T1, CCR5 (Homo sapiens, UniProt P51681); experiment: Inhibition of 125I-MIP-1β binding to CCR5 (CCR5+ CHO cells)
T1 construct: expressed in transfected cells; host or cells: Chinese hamster ovary (CHO) cells expressing CCR5
T1 sequence (P51681 whole entry): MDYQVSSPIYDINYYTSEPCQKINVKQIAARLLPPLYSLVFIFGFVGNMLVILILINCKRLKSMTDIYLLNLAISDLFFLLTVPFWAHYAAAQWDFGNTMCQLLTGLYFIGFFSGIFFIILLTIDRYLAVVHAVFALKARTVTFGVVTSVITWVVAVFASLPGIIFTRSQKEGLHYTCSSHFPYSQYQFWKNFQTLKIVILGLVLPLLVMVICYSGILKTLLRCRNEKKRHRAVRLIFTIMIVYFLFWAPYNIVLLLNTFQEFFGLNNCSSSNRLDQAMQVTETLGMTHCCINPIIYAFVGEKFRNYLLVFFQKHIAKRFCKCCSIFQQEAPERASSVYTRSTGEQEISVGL
Experimental: In order to determine whether GRL derivatives block the binding of CC-chemokines to CCR5, we conducted a CC-chemokine binding inhibition assay using ^125I-labeled CC-chemokines (^125I-RANTES, ^125I-MIP-1α, and ^125I-MIP-1β) and CCR5 expressing cells.
CCR5^+ CHO cells were incubated with (A) ^125I-MIP-1α, (B) ^125I-MIP-1β, and (C) ^125I-RANTES (200 ng/ml) in the presence or absence of varying concentrations of CCR5 inhibitors. Data are shown as means ± s.d. of three independent experiments.
The inhibition of the binding of ^125I-labeled CC-chemokines ([^125I] RANTES, [^125I] MIP-1α, or [^125I] MIP-1β) to CCR5 by various CCR5 inhibitors was measured as previously described. Calcium flux inhibition assays were also performed with CCR5 inhibitors, and were carried out with the Fluo-4 Direct^TM calcium reagent (Invitrogen); assays were conducted as previously described with minor modifications. In brief, CHO-CCR5 cells (5 × 10^5 cells) were exposed to Fluo-4 Direct^TM calcium reagent for 60 min at 37 °C in RPMI containing 5% FCS. Cells were then incubated with the test compound for 30 min at varying concentrations. Subsequently, cells were exposed to either MIP-1α, MIP-1β, or RANTES at 200 ng/ml. Relative increases in cytosolic Ca^2+ levels after chemokine exposure were determined with flow cytometry (FACSCalibur, BD Biosciences), and IC50 values of cytosolic Ca^2+ mobilization (Ca^2+ flux) were compared with the Ca^2+ flux level in drug-free control samples.

[4] = test system: CC1/85 cl.7; experiment: Anti-HIV-1 assay, drug-naive clinical strain CC1/85 cl.7; assay type: cell-based; details: Human immunodeficiency virus 1
Experimental: MAGI-CCR5 cells[18] were maintained in DMEM supplemented with 10% fetal calf serum (FCS: Gemini Bio-Products, West Sacramento, CA), 200 μg/ml G418, 100 μg/ml hygromycin B, and 100 μg/ml zeomycin. The Chinese hamster ovary (CHO) cells expressing CCR5[19] were maintained in Ham’s F-12 medium (GIBCO-BRL, Rockville, MD) supplemented with 10% FCS, 50 U/ml penicillin, and 50 μg/ml streptomycin in the presence of 5 μg/ml blasticidin S hydrochloride. TZM-bl cells were obtained from the NIH AIDS Reagent Program, and were cultured in DMEM with 10% FCS. Peripheral blood mononuclear cells (PBMCs) were isolated from buffy coats of HIV-1 seronegative individuals, and were activated with 10 μg/ml phytohemagglutinin (PHA) prior to use[16]. A laboratory wild-type R5-HIV-1 strain (HIV-1Ba-L)[37] was employed for drug susceptibility assays. AD101 (experimental CCR5 inhibitor) and VVC-resistant HIV clones[7],[8] were provided by Dr. John P. Moore of Cornell University for this study. The clones were propagated with activated PBMCs, and were used for the assays. A clinical HIV-1 strain, HIV-1KP-5pc, and an MVC-resistant isolate, HIV-1KP-5mvcR, were prepared and used for antiviral assays, as previously described[10],[38]. The following reagents (plasmids) for T/F HIV-1 viruses[22],[24] were obtained through the NIH AIDS Reagent Program, Division of AIDS, NIAID, NIH: pCH040.c/2625 (cat# 11740), pCH106.c/2633 (cat# 11743), pTHRO.c/2626 (cat# 11745), and pCH058.c/2960 (cat# 11856), from Dr. John Kappes and Dr. Christina Ochsenbauer.
as §2

C=CCN(C(=O)OCc1ccc([N+](=O)[O-])cc1)C1CC2CCC(C1)N2CCC(C)(CN(C)S(=O)(=O)c1ccccc1)c1ccccc1 (centres unmarked) [GRL-117C]
IC50 [1]: 3.2 ± 1 nM | IC50 [2]: 1.9 to 3.2 nM | EC50 [3]: 2 nM | IC50 [4]: 3.5 nM | IC90 [4]: 28.9 nM

Reference: article PMC6423129, “Activity and structural analysis of GRL-117C: a novel small molecule CCR5 inhibitor active against R5-tropic HIV-1s” (Scientific Reports, 2019)
